In ChEMBL document CHEMBL3885861, “Open TG-GATES”:

Species: Rattus norvegicus
Experiment: Open TG-GATES - Regimen: Single
Assay type: toxicity, organism-based, Sprague-Dawley
Design: regimen Single, gender Male, age 6 weeks
Conditions: in vivo, po, 1000 mg/kg, route gavage, dose level High; for APTT / Bas / Eos / Fbg / Hb / Ht / Lym / MCH / MCHC / MCV / Mono / Neu / PT / Plat / RBC / Ret / WBC: tissue Blood; for KIDNEY_L / KIDNEY_R / KIDNEY_TOTAL: tissue Kidney; for LIVER: tissue Liver; for A/G / ALP / ALT / AST / BUN / CRE / Ca / Cl / DBIL / GLC / IP / K / LDH / Na / PL / RALB / TBIL / TC / TG / TP / gamma-GTP: tissue Plasma

Structure (SMILES): O=C(OC[C@H]1O[C@@H](OC(=O)c2cc(O)c(O)c(OC(=O)c3cc(O)c(O)c(O)c3)c2)[C@H](OC(=O)c2cc(O)c(O)c(OC(=O)c3cc(O)c(O)c(O)c3)c2)[C@@H](OC(=O)c2cc(O)c(O)c(OC(=O)c3cc(O)c(O)c(O)c3)c2)[C@@H]1OC(=O)c1cc(O)c(O)c(OC(=O)c2cc(O)c(O)c(O)c2)c1)c1cc(O)c(O)c(OC(=O)c2cc(O)c(O)c(O)c2)c1 [TANNIC ACID]
- TERMINAL_BW (3 h): 189.4 g
- APTT (3 h): 17.2 s
- Bas (3 h): 0%
- Eos (3 h): 1%
- Fbg (3 h): 221.2 mg/dL
- Hb (3 h): 13 g/dL
- Ht (3 h): 38.9%
- Lym (3 h): 81.6%
- MCH (3 h): 21.7 pg
- MCHC (3 h): 33.3%
- MCV (3 h): 65.1 fL
- Mono (3 h): 4.8%
- Neu (3 h): 12.8%
- PT (3 h): 11.9 s
- Plat (3 h): 110.6 x10_4/uL
- RBC (3 h): 597.4 x10_4/ul
- Ret (3 h): 10.3%
- WBC (3 h): 104.1 x10_2/uL
- KIDNEY_L (3 h): 0.9 g
- KIDNEY_R (3 h): 0.9 g
- KIDNEY_TOTAL (3 h): 1.8 g
- LIVER (3 h): 8.5 g
- A/G (3 h): 2
- ALP (3 h): 805 IU/L
- ALT (3 h): 39.6 IU/L
- AST (3 h): 69.6 IU/L
- BUN (3 h): 12.2 mg/dL
- CRE (3 h): 0.4 mg/dL
- Ca (3 h): 10.8 mg/dL
- Cl (3 h): 104.6 meq/L
- DBIL (3 h): 0.016 mg/dL
- GLC (3 h): 191.4 mg/dL
- IP (3 h): 10.2 mg/dL
- K (3 h): 4.9 meq/L
- LDH (3 h): 101.8 IU/L
- Na (3 h): 138.2 meq/L
- PL (3 h): 128.2 mg/dL
- RALB (3 h): 3.7 g/dL
- TBIL (3 h): 0.5 mg/dL
- TC (3 h): 72.8 mg/dL
- TG (3 h): 35.8 mg/dL
- TP (3 h): 5.5 g/dL
- gamma-GTP (3 h): 1.2 IU/L
- TERMINAL_BW (6 h): 183.9 g
- APTT (6 h): 16.7 s
- Bas (6 h): 0%
- Eos (6 h): 1%
- Fbg (6 h): 211 mg/dL
- Hb (6 h): 13.5 g/dL
- Ht (6 h): 40.6%
- Lym (6 h): 76.2%
- MCH (6 h): 22 pg
- MCHC (6 h): 33.3%
- MCV (6 h): 66.1 fL
- Mono (6 h): 7%
- Neu (6 h): 16.2%
- PT (6 h): 12 s
- Plat (6 h): 115.1 x10_4/uL
- RBC (6 h): 613.8 x10_4/ul
- Ret (6 h): 9.7%
- WBC (6 h): 101 x10_2/uL
- KIDNEY_L (6 h): 0.9 g
- KIDNEY_R (6 h): 0.9 g
- KIDNEY_TOTAL (6 h): 1.8 g
- LIVER (6 h): 7.5 g
- A/G (6 h): 1.8
- ALP (6 h): 682.8 IU/L
- ALT (6 h): 41.4 IU/L
- AST (6 h): 68.8 IU/L
- BUN (6 h): 11.4 mg/dL
- CRE (6 h): 0.4 mg/dL
- Ca (6 h): 10.6 mg/dL
- Cl (6 h): 105.8 meq/L
- DBIL (6 h): 0.008 mg/dL
- GLC (6 h): 183.4 mg/dL
- IP (6 h): 11 mg/dL
- K (6 h): 5 meq/L
- LDH (6 h): 81.4 IU/L
- Na (6 h): 138.8 meq/L
- PL (6 h): 113.6 mg/dL
- RALB (6 h): 3.4 g/dL
- TBIL (6 h): 0.7 mg/dL
- TC (6 h): 65.2 mg/dL
- TG (6 h): 22.2 mg/dL
- TP (6 h): 5.3 g/dL
- gamma-GTP (6 h): 1.2 IU/L
- TERMINAL_BW (9 h): 185.5 g
- APTT (9 h): 16.9 s
- Bas (9 h): 0%
- Eos (9 h): 1%
- Fbg (9 h): 221 mg/dL
- Hb (9 h): 13.1 g/dL
- Ht (9 h): 39.1%
- Lym (9 h): 73%
- MCH (9 h): 22.3 pg
- MCHC (9 h): 33.6%
- MCV (9 h): 66.5 fL
- Mono (9 h): 8%
- Neu (9 h): 18.4%
- PT (9 h): 12.3 s
- Plat (9 h): 119.4 x10_4/uL
- RBC (9 h): 589.2 x10_4/ul
- Ret (9 h): 9.2%
- WBC (9 h): 87.8 x10_2/uL
- KIDNEY_L (9 h): 0.9 g
- KIDNEY_R (9 h): 0.8 g
- KIDNEY_TOTAL (9 h): 1.7 g
- LIVER (9 h): 7.1 g
- A/G (9 h): 2.3
- ALP (9 h): 772.8 IU/L
- ALT (9 h): 42.4 IU/L
- AST (9 h): 68.8 IU/L
- BUN (9 h): 12.2 mg/dL
- CRE (9 h): 0.4 mg/dL
- Ca (9 h): 10.2 mg/dL
- Cl (9 h): 106.8 meq/L
- DBIL (9 h): 0.08 mg/dL
- GLC (9 h): 193 mg/dL
- IP (9 h): 10.8 mg/dL
- K (9 h): 5 meq/L
- LDH (9 h): 69 IU/L
- Na (9 h): 137 meq/L
- PL (9 h): 113.8 mg/dL
- RALB (9 h): 3.7 g/dL
- TBIL (9 h): 0.9 mg/dL
- TC (9 h): 61.6 mg/dL
- TG (9 h): 16 mg/dL
- TP (9 h): 5.4 g/dL
- gamma-GTP (9 h): 2 IU/L
- TERMINAL_BW (24 h): 198.6 g
- APTT (24 h): 17.8 s
- Bas (24 h): 0%
- Eos (24 h): 1%
- Fbg (24 h): 221.4 mg/dL
- Hb (24 h): 12.6 g/dL
- Ht (24 h): 38.2%
- Lym (24 h): 75.2%
- MCH (24 h): 21.5 pg
- MCHC (24 h): 33.1%
- MCV (24 h): 64.8 fL
- Mono (24 h): 9.2%
- Neu (24 h): 15%
- PT (24 h): 11.8 s
- Plat (24 h): 104.8 x10_4/uL
- RBC (24 h): 588.8 x10_4/ul
- Ret (24 h): 9.3%
- WBC (24 h): 91 x10_2/uL
- KIDNEY_L (24 h): 0.9 g
- KIDNEY_R (24 h): 0.9 g
- KIDNEY_TOTAL (24 h): 1.7 g
- LIVER (24 h): 9.2 g
- A/G (24 h): 1.9
- ALP (24 h): 893.8 IU/L
- ALT (24 h): 36.4 IU/L
- AST (24 h): 62.4 IU/L
- BUN (24 h): 18 mg/dL
- CRE (24 h): 0.5 mg/dL
- Ca (24 h): 10.8 mg/dL
- Cl (24 h): 104.2 meq/L
- DBIL (24 h): 0 mg/dL
- GLC (24 h): 184 mg/dL
- IP (24 h): 7.8 mg/dL
- K (24 h): 4.6 meq/L
- LDH (24 h): 110.8 IU/L
- Na (24 h): 138.6 meq/L
- PL (24 h): 133.4 mg/dL
- RALB (24 h): 3.5 g/dL
- TBIL (24 h): 0.3 mg/dL
- TC (24 h): 72.2 mg/dL
- TG (24 h): 79.6 mg/dL
- TP (24 h): 5.4 g/dL
- gamma-GTP (24 h): 0.8 IU/L
